Measured values published in patent US20180353457A1, “ABIETANE DITERPENOID 7-ACETOXYROYLEANONES FOR USE IN CANCER TREATMENT” (University of South Carolina, priority 2017, published 2018).
Where two headings read alike, the source gives them in different places.

How the values were obtained:
[1] = tested on: HOP-92 (non-small cell lung cancer) cells; assay: NCI-60 five dose screen, HOP-92; settings: read-out: LC50; HOP-92, Non-small Cell Lung Cancer
[2] = tested on: OVCAR-3 (ovarian cancer) cells; assay: NCI-60 five dose screen, OVCAR-3; settings: read-out: LC50; OVCAR-3, Ovarian
[3] = tested on: HCT 116/200 (FdUrd resistant subclone of HCT 116) cells; assay: MTS cytotoxicity assay, HCT 116/200; assay type: cell-based; settings: HCT 116/200 cells
Description: Human cell lines used included MG-63 (osteosarcoma), SK-OV-3 (ovarian adenocarcinoma), MDA-MB-231 (breast adenocarcinoma derived from a metastatic site), HCT 116 (colorectal carcinoma), HCT 116/200 (an FdUrd resistant subclone of HCT 116 cells), and A2780ADR (a doxorubicin resistant subclone of the ovarian carcinoma A2780). All cells were stored in liquid nitrogen until use. MG-63, SK-OV-3, MDA-MB-231, and HCT 116 cell lines were all obtained from ATCC. A2780ADR cells were obtained from Sigma-Aldrich. HCT 116/200 cells were obtained from Dr. Franklin G. Berger from the Center for Colon Cancer Research. MG-63 cells were maintained in MEM medium (Corning) supplemented with 10% Fetal Bovine Essence (VWR) and 1% penicillin/streptomycin solution (Corning). SK-OV-3 cells were maintained in McCoy's 5A Medium (Sigma) supplemented with Fetal Bovine Essence and 1% penicillin/streptomycin. […]
Cells were first grown to approximately 80% confluency within […] tissue culture flasks (VWR). […] Cells were counted using a hemocytometer and their viability was confirmed using trypan blue (Gibco). […]
In combination studies, 7-acetoxyroyleanone and FdUrd were first mixed into the same media and then added to the cells. […] The cells were incubated for 2 hours, and the absorbance of each well at 490 nm was measured using a Spectramax 190 microplate reader.

leukemia cell lines = settings: read-out: LC50; each leukemia cell line; not reached at highest concentration tested
[4] = tested on: DU-145 (prostate cancer) cells; assay: NCI-60 five dose screen, DU-145; settings: read-out: LC50; DU-145, Prostate
[5] = tested on: NCI-60 panel of cancer cell lines; settings: for GI50: across all 60 cell lines
[6] = tested on: COLO 205 (colon cancer) cells; assay: NCI-60 five dose screen, COLO 205; settings: read-out: LC50; COLO 205, Colon
[7] = tested on: SK-MEL-5 (melanoma) cells
[8] = tested on: SF-295 (CNS cancer) cells; assay: NCI-60 five dose screen, SF-295; settings: read-out: LC50; SF-295, CNS
[9] = tested on: NCI-H522 (non-small cell lung cancer) cells; assay: NCI-60 five dose screen, NCI-H522; settings: read-out: LC50; NCI-H522, Non-small Cell Lung Cancer
[10] = tested on: HCC-2996 (colon cancer) cells; assay: NCI-60 five dose screen, HCC-2996
[11] = HCC-2996, most sensitive cell line to growth inhibition

In the case of `CC(=O)O[C@@H]1C[C@H]2C(C)(C)CCC[C@]2(C)C2=C1C(=O)C(C(C)C)=C(O)C2=O` [7-acetoxyroyleanone], the CC50 [1] is reported as 5.4 µM, the CC50 [2] is reported as 7.46 µM and the “cytotoxicity (percent viability)” value ([3]; 48 and 72 hours of exposure) is reported as “significant cytotoxic properties”. The “cytotoxic effect in combination with FdUrd (percent viability, cell number)” value ([3]; 48 hour exposure, combined with 1 μg/mL FdUrd) was “synergistic cytotoxic effect”, the CC50 (leukemia cell lines) was greater than 100 µM and the CC50 [4] was 5.67 µM. For the same compound, the CC50 [5] was 11.5 µM, the “average TGI concentration” value ([5]; across the 50 cell lines with TGI within the range tested) was 6.69 µM and the GI50 ([5]; read-out: average GI50 concentration, five dose screen) was 1.27 µM. The GI50 ([5]; read-out: range of the GI50 concentrations) was 2.86 µM, the CC50 [6] was 6.3 µM and the CC50 [7] was 4.34 µM. It also gave a CC50 [8] of 7.37 µM, a CC50 [9] of 9.02 µM and a GI50 [10, 11] of 0.405 µM. The TGI [10, 11] was 1.62 µM and the CC50 ([10]; read-out: LC50, HCC-2996, Colon) was 6.41 µM.
